Measured values from patent US20160194336A1, “P38 MAPK INHIBITORS FOR THE TREATMENT OF INFLAMMATORY DISEASES” (ALLINKY BIOPHARMA, priority 2012, published 2016).
Read-outs that look alike come from different tables or passages of the source.

Assays:
p38alpha [1] = target: T1, p38alpha (Homo sapiens, UniProt Q16539); assay: p38 cascade kinase reaction (inactive p38alpha, MKK6, ATF2, ADP-Glo); assay type: biochemical; details: for inhibition at 10 µM: compound 10 μM
T1 construct: purchased Invitrogen PV3305
T1 sequence (Q16539 whole entry): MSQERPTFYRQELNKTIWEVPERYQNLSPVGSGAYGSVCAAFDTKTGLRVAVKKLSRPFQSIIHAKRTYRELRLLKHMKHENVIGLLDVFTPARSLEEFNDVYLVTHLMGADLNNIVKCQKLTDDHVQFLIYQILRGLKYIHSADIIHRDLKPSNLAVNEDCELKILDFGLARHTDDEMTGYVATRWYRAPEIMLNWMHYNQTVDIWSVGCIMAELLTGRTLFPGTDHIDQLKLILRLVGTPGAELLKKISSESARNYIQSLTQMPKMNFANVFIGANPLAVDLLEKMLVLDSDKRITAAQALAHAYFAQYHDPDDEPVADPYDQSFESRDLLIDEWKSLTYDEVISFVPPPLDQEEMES
Method: Purified recombinant activated p38alpha (10 nM)(ProQinase) was preincubated 10 minutes at 30° C. with the compound of interest at concentrations between 1 and 100 µM in duplicate in a final volume of 30 ul of kinase buffer (Hepes 60 mM pH 7.5, MgCl2 3 mM, MnCl2 3 mM, Sodium Orthovanadate 3 μM, DTT 1.2 mM). After preincubation, peptide substrate (SignalChem #P03-58) and ATP were added to a final concentration of 10 μM and 100 μM respectively, and then incubated 40 minutes at 30° C. for the kinase reaction. Phosphorylation was analyzed with ADP-GloM (Promega #V9101) and emitted luminescence was measured with BMG Fluostar microplate reader.
(§1) After preincubation, MKK6 (ProQinase), ATF2 (ProQinase) and ATP were added to a final concentration of 10 nM, 5 μM and 10 μM respectively, then incubated 40 minutes at 30° C. and analyzed with ADP-Glo™.

p38beta = p38beta (Homo sapiens, UniProt Q15759); assay: p38 cascade kinase reaction, p38beta/ATF-2; assay type: biochemical
p38beta, sequence (Q15759 whole entry): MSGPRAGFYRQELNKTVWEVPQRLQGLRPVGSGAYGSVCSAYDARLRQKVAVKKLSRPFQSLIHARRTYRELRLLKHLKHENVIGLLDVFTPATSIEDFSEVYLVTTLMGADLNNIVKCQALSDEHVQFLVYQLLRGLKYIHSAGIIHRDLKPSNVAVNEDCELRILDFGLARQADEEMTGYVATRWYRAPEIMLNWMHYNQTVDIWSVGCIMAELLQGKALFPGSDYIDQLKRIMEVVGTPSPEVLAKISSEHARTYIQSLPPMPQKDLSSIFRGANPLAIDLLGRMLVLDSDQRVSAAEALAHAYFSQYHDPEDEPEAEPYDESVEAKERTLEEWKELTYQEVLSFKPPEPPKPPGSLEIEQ
Method: as §1

p38alpha wt = target: T2, p38alpha wt (Homo sapiens, UniProt Q16539); assay: site-mutated p38 phosphorylation cascade assay, wild type; assay type: biochemical; details: compound 10 uM
T2 construct: made in house; host or cells: E. coli XL10-Gold
T2 sequence (Q16539 whole entry): as the sequence (Q16539 whole entry) above
Method: as §1
(§2) Replacement of specific residues arginine 186 and 189 of p38α (pGEX4T-1-p38α) for alanine was performed with the QuikChange Lightining Site-Directed Mutagenesis Kit (Agilent Technologies). The following oligonucleotides were used for the arginine 186 to alanine substitution: forward primer: 5′-SEQ ID NO 7-3′; reverse primer: 5′-SEQ ID NO 8-3′. Oligonucleotides used for the arginine 189 to alanine substitution were: forward primer: 5′-SEQ ID NO 9-3′; reverse primer: 5′-SEQ ID NO 10-3′. Mutations were validated by sequencing (Genomic Unit, Parque Cientifico de Madrid). E. coli XL10-Gold ultracompentent cells (Agilent Technologies) were transformed with the vector plasmids containing p38αWT and mutants. For the expression of recombinant p38α transformed cells were cultured overnight at 37° C. in 50 ml of fresh LB medium containing ampicillin (100 μg/ml). After that, culture was diluted in fresh LB to A595=0.4 and grown for approximately 1 h at 37° C. until exponential growth and then induced with Isopropyl-β-D-thiogalactopyranoside (IPTG) 1 mM for 5 h. The cells were collected by centrifugation and cell pellet were resuspended in 50 ml of cold lysis buffer: PBS pH 7.4, EDTA 10 mM, PMSF 1 mM, Benzamidine 0.2 mM, DTT 5 mM, Triton X-100 1% and Lysozyme 1 mg/ml. The soluble and insoluble fractions were separated by centrifugation (16,000 g for 20 min). The soluble fraction was incubated for 2 hours with 1 ml of pre-equilibrated Glutathione Sepharose 4B (GE Healthcare) and the resin was extensively washed in a column with 200 ml of binding buffer: PBS, PMSF 1 mM and benzamidine 0.2 mM. Proteins were eluted with 1 ml of Tris-HCl 50 mM pH 8.0 and reduced glutathione 20 mM. 20% glycerol was added to purified proteins and stored at −80° C. Protein concentration and purity was assessed by SDS-PAGE. Kinase activity was measured by ADP-glo kit using MKK6 as activator and ATF2 as substrate. Activity recorded for p38αR186A and p38αR189A were 15.5% and 4.8%, respectively (n=4) related to wild type protein.

p38αR186A = target: T3, p38αR186A (Homo sapiens, UniProt Q16539, R186A); assay: site-mutated p38 phosphorylation cascade assay, R186A mutant; assay type: biochemical; details: compound 10 uM
T3 construct: made in house; host or cells: E. coli XL10-Gold
T3 sequence (Q16539 whole entry R186A): as the sequence (Q16539 whole entry) above, with R186A counted along it
Method: as §1, §2

p38αR189A = target: T4, p38αR189A (Homo sapiens, UniProt Q16539, R189A); assay: site-mutated p38 phosphorylation cascade assay, R189A mutant; assay type: biochemical; details: compound 10 uM
T4 construct: made in house; host or cells: E. coli XL10-Gold
T4 sequence (Q16539 whole entry R189A): as the sequence (Q16539 whole entry) above, with R189A counted along it
Method: as §1, §2

[2] = system: Fibroblast-like synoviocytes (FLS) from patients with rheumatoid arthritis; assay: inflammatory mediators (IL6, IL8, MCP-1) by ELISA in FLS stimulated with TNF-alpha; assay type: cell-based, human; details: compound 100 μM
Method: Fibroblast-like synoviocytes (FLS) from patients with rheumatoid arthritis (RA) were obtained at the time of synovectomy or joint replacement. All RA patients fulfilled the American College of Rheumatology […] criteria for the diagnosis of RA (Arnett FC y cols. 1988 Arthritis Rheum 31(3):315-24).
Synovial tissue was minced and incubated with 10 μg/ml collagenase in serum-free Dulbecco modified Eagle medium (DMEM; Gibco Invitrogen, Barcelona, Spain) for 3 h at 37° C. After digestion, FLS were filtered through a nylon cell strainer (BD Falcon, Franklin Lakes, USA), washed extensively, and cultured in DMEM supplemented with 10% v/v fetal calf serum, 1% penicillin-streptomycin, and 1% L-glutamine (all reagents from PAA, Laboratories GmbH) in a humidified 5% C02 atmosphere. Adherent cells at 80-90% confluence were trypsinised and diluted at a split ratio of 1:3. FLS from 4 patients and between passages 3 to 8 were used for all experiments.
Enzyme-Linked Immunosorbent Assay (ELISA): RA FLS (1×10^4 cells/well) were cultured in DMEM 1% FCS in 96 well plates and treated with p-p38 inhibitors for 1 h. After, they were stimulated with TNF-α (10 ng/ml, Sigma Aldrich) and both treatments were present in the culture throughout the experiment. The supernatants were harvested at 18 h after treatment and assayed for IL6, IL8/CXCL8 and monocyte chemoattractant protein (MCP)-1/CCL2 by ELISA according to the manufacturer's instructions (BD Bioscience, San Jose, Calif., USA).

[3] = system: TNF-α secretion, THP-1 cells; assay: Inhibition of TNF-α secretion by LPS-stimulated THP-1; assay type: cell-based; details: Homo sapiens, THP-1, 3 h, monocytes with LPS, read-out: TNF abetment
Method: Inhibition of TNF-α Secretion by a Human Monocytic Cell Line, THP-1.
THP-1 cells, growing in log phase, were collected by centrifugation and resuspended in RPMI 1640 (Sigma Aldrich), to a final cell concentration of 2×10^6 cells/ml. Cells were plated into 24-well plates (BD Biosciences). Dilutions of compounds in dimethyl sulfoxide (DMSO) were added to the culture to a final concentration M. The final DMSO concentration was 0.5%. The cells […] suspensions were preincubated with compounds for 1 h at 37° C. in a 5% C02 humidified atmosphere before the addition of LPS (Sigma Aldrich, L2654) to a final concentration of 2 μg/ml. After that, cells were incubated for 3 h followed by centrifugation to pellet cells. Cell supernatants were stored at 4° C. until Human analysis for TNF-α content. TNF-α levels were determined by ELISA (TNF Biotrak, GE Healthcare) following the manufacturer's directions. The percentage inhibition was calculated for each compound concentration tested, and the IC50 was calculated for each compound.

THP-1 cells = assay: survival of monocytes with LPS; assay type: cell-based, human
p38alpha [4] = target: T1, p38alpha; assay: p38 cascade kinase reaction (inactive p38alpha, MKK6, ATF2, ADP-Glo); assay type: biochemical; details: ATP 100 μM; compound 10 μM; n=4; read-out: inhibition, ATP-site competitive assay, cascade p38alpha/ATF-2

Question: What does the source list for CCOC(=O)c1ccc(Nc2nc3nonc3nc2N2CCC(Cc3ccccc3)CC2)cc1 [Compound 1]?
Answer: inhibition at 10 µM (p38alpha [1]; ATP 10 μM, n=4, read-out: inhibition, ATP-site competitive assay, cascade p38alpha/ATF-2): 94%; inhibition upon ATP increase (ATP-site competition) (p38alpha [1]; cascade p38alpha/ATF-2, n=4): Maintains Inhibition to the Same Level Upon ATP Increase; inhibition at 10 µM (p38alpha [1]; dose response table, read-out: inhibition p38alpha/ATF-2): 88%; inhibition at 100 µM (p38alpha [1]; compound 100 μM, dose response table, read-out: inhibition p38alpha/ATF-2): 101%; inhibition at 10 µM (p38beta; compound 10 μM): 58%; inhibition at 100 µM (p38beta; compound 100 μM): 100%; inhibition at 10 µM (p38alpha wt): 64%; inhibition at 10 µM (p38αR186A): 20%; inhibition at 10 µM (p38αR189A): 25%; IL-6, % of TNF-α control ([2]; FLS sample R 2): 13.8%; IL-8, % of TNF-α control ([2]; FLS sample R 2): 27.3%; MCP-1, % of TNF-α control ([2]; FLS sample R 2): 2.1%; IL-6, % of TNF-α control ([2]; FLS sample R 6): 8.1%; IL-8, % of TNF-α control ([2]; FLS sample R 6): 4.8%; MCP-1, % of TNF-α control ([2]; FLS sample R 6): 0.0%; IL-6, % of TNF-α control ([2]; FLS sample R 8): 23.5%; IL-8, % of TNF-α control ([2]; FLS sample R 8): 67.4%; MCP-1, % of TNF-α control ([2]; FLS sample R 8): 22.5%; IL-6, % of TNF-α control ([2]; FLS sample SH203): 101.4%; IL-8, % of TNF-α control ([2]; FLS sample SH203): 43.8%; MCP-1, % of TNF-α control ([2]; FLS sample SH203): 8.8%; IL-6, % of TNF-α control, Media ([2]; mean of 4 FLS samples): 36.7%; IL-8, % of TNF-α control, Media ([2]; mean of 4 FLS samples): 35.8%; MCP-1, % of TNF-α control, Media ([2]; mean of 4 FLS samples): 8.4%; inhibition at 1 µM ([3]; 1 uM): 9%; inhibition at 10 µM ([3]; 10 uM): 40%; Cell survival (THP-1 cells; 1 uM): 96%; Cell survival (THP-1 cells; 10 uM): 93%; inhibition at 10 µM (p38alpha [4]): 92%
